The source of these data is US9146237B2, “In vitro assay method using immunological technique” (BASF Beauty Care Solutions France S.A.S., priority 2011, dated 2015).

Assay [1] relates to intracellular procollagen. The experiment in a line: Procollagen assay by ELISA (PIPc kit) on collected lysis medium. Type of assay: cell-based, human. To be noted: Example 4. How it is done:
A lysis step was carried out: 110 μl of an ammonium hydroxide solution at 20 mM for 10 minutes at room temperature and with stirring. The experiment was carried out without active ingredient on the one hand and with ascorbic acid solubilized in PBS at different concentrations from 0.1 to 100 μM. On the collected lysis medium, a procollagen assay (PIPc kit, TAKARA) by ELISA was carried out for determining the amount of intracellular procollagen (Table 4.2). A DNA assay (Picogreen kit, Invitrogen) was also carried out for rationalizing all of the measurements in each well to the quantity of viable cells. The amounts of collagen and procollagen measured were rationalized to the amount of DNA present in each well.
A general note: An ELISA detects its analyte on a solid surface through an enzyme-linked reagent.

The test system of assay [2] is type I collagen in the ECM. Kind of assay: Assay of type I collagen directly on the ECM of fibroblast cultures (anticollagen I antibody, europium TRF). It counts as cell-based, human. How it is done:
After 48 hours of culture post-confluency, the culture medium was removed and discarded. A lysis step was carried out: 110 μl of an ammonium hydroxide solution at 20 mM for 10 minutes at room temperature and with stirring. The lysate was collected and analysed. The double-stranded DNA contained in the lysate was assayed by using the bisbenzimide method (Picogreen Kit, Invitrogen). The collagen in the ECM was assayed directly on the ECM by using an anticollagen I antibody. A secondary antibody conjugated to europium was used with a detection solution and the fluorescence was measured. (Delfia® kit—Perkin Elmer). The fluorescence results were rationalized relative to the amount of dsDNA measured. The experiment was carried out without active ingredient on the one hand and with ascorbic acid solubilized in PBS at different concentrations from 0.1 to 100 μM. The experiment was carried out according to the protocol described in example 1 with fibroblasts extracted from a biopsy from a donor. The cells at confluency were incubated in the presence of the active ingredients for 48 hours at 37° C. under 0.5% CO2 or without active ingredient (control) for 48 hours at 37° C. under 0.5% CO2. […]

For the compound `O=C1O[C@H]([C@@H](O)CO)C(O)=C1O` [Ascorbic acid], in assay [1], the “Procollagen concentration in the intracellular compartment versus untreated control” value is reported as “less than that observed with the untreated control”. For the same compound, in assay [2] (50 μM, Example 6), the “Effect on amount of collagen I in the ECM” value is recorded as “significant increase in the amount of collagen I in the ECM”. In addition, in assay [2] (Example 4, 0.1 to 100 μM), the “Concentration up to which the effect on content of collagen I in the ECM is dose-dependent (threshold effect)” value is listed as “up to 50 μM”.
